Structures can show the parent of a compound that is named as a salt.
System: IL-2 production
Assay: Inhibition of IL-2 production in PHA-activated Jurkat cells (ELISA)
Format: cell-based
Details: Homo sapiens, Jurkat, 20 h, PHA 2.5 μg/mL
Experimental: Jurkat cells were placed in a 96 well plate (0.5 million cells per well in 1% FBS medium) then a test compound of this invention was added at different concentrations. After 10 minutes, the cells were activated with PHA (final concentration 2.5 μg/mL) and incubated for 20 hours at 37° C. under CO2. The final volume was 200 μL. Following incubation, the cells were centrifuged and the supernatants were collected and stored at −70° C. prior to assaying for IL-2 production. A commercial ELISA kit (IL-2 Eli-pair, Diaclone Research, Besancon, France) was used to detect production of IL-2, from which dose response curves were obtained. The IC50 value was calculated as the concentration at which 50% of maximum IL-2 production after stimulation was inhibited versus a non-stimulation control.

For `O=C(Nc1cnc(-n2c(C(F)(F)F)nc3cc(O)ccc32)cn1)c1c(F)cccc1F` [Compound 4, 2,6-Difluoro-N-[5-(5-hydroxy-2-trifluoromethyl-benzoimidazol-1-yl)-pyrazin-2-yl]-benzamide, sodium salt], which IC50 is on record?
Its IC50 is 0.014 µM.

Same assay, conditions: Homo sapiens, PHA 2.5 μg/mL, 20 hours

For `O=C(Nc1cnc(-n2c(C(F)(F)F)nc3cc(O)ccc32)cn1)c1c(F)cccc1F` [Compound 1, 2,6-Difluoro-N-[5-(5-hydroxy-2-trifluoromethyl-benzoimidazol-1-yl)-pyrazin-2-yl]-benzamide], which IC50 is on record?
The IC50 was 0.034 µM.

With `O=C(Nc1cnc(-n2c(C(F)(F)F)nc3cc([N+](=O)[O-])ccc32)cn1)c1c(F)cccc1F` [Compound 2, 2,6-Difluoro-N-[5-(5-nitro-2-trifluoromethyl-benzoimidazol-1-yl)-pyrazin-2-yl]-benzamide] as the compound, how does the IC50 read?
The IC50 was 0.089 µM.

How did the IC50 turn out when `COc1ccc2c(c1)nc(C)n2-c1cnc(NC(=O)c2c(F)cccc2F)cn1` [Compound 3, 2,6-Difluoro-N-[5-(5-methoxy-2-methyl-benzoimidazol-1-yl)-pyrazin-2-yl]-benzamide] was run?
The IC50 was 0.102 µM.

For `CN(C)c1ccc2c(c1)nc(C(F)(F)F)n2-c1cnc(NC(=O)c2c(F)cccc2F)cn1` [Compound 5, N-[5-(5-Dimethylamino-2-trifluoromethyl-benzoimidazol-1-yl)-pyrazin-2-yl]-2,6-difluoro-benzamide], which IC50 is on record?
Its IC50 is 0.029 µM.

Which IC50 does the source give for `Nc1ccc2c(c1)nc(C(F)(F)F)n2-c1cnc(NC(=O)c2c(F)cccc2F)cn1` [Compound 6, N-[5-(5-Amino-2-trifluoromethyl-benzoimidazol-1-yl)-pyrazin-2-yl]-2,6-difluoro-benzamide] here?
The IC50 was 0.097 µM.

For `O=C(Nc1cnc(-n2c(C(F)(F)F)nc3cc(-c4nnco4)ccc32)cn1)c1c(F)cccc1F` [Compound 8, 2,6-Difluoro-N-[5-(5-[1,3,4]oxadiazol-2-yl-2-trifluoromethyl-benzoimidazol-1-yl)-pyrazin-2-yl]-benzamide], which IC50 is on record?
The IC50 was 0.039 µM.

How did the IC50 turn out when `Cc1nnc(-c2ccc3c(c2)nc(C(F)(F)F)n3-c2cnc(NC(=O)c3c(F)cccc3F)cn2)o1` [Compound 9, 2,6-Difluoro-N-{5-[5-(5-methyl-[1,3,4]oxadiazol-2-yl)-2-trifluoromethyl-benzoimidazol-1-yl]-pyrazin-2-yl}-benzamide] was run?
Its IC50 is 0.084 µM.

Source: patent US8324219B2, “Substituted benzoimidazolyl-pyrazine compounds for inflammation and immune-related uses” (Synta Pharmaceuticals Corp., priority 2007, dated 2012)
